Reference: EP0051084A1, “Substituted 1H-1,2,4-triazoles” (AMERICAN CYANAMID COMPANY, priority 1980, dated 1982)

Legend:
[1] = system: Adjuvant induced experimental polyarthritis; assay: Adjuvant Arthritis Assay; format: in vivo, Royal Hart Wistar strain rats; design: key: Active: If the mean RSA of all three tests is less than 0.753, the compound is considered active; conditions: rats, 50 mg./kg. orally once daily on days 0 through 13 post-challenge; injected paw measured on 14th day; RSA = treated/control
Text: Adjuvant induced experimental polyarthritis is a specific systemic disease of the rat which shares interesting similarities with rheumatoid arthritis. Specifically, the histology of the two diseases bears a remarkable resemblence as shown by C. M. Pearson, et al, Am. J. Path., 42, 73 (1963). E. M. Glenn, Am. J. Vet. Res., 27, (116), 339 (1966) has classified adjuvant induced polyarthritis as a crippling and permanent deformity resulting from diffuse connective tissue involvement around certain susceptible joints in the rat. Zahiri, et al., Can. Med. Ass. J., 101, 269 (1969) have shown that the fusiform swelling of the distal joints is associated with edema, congestion and synovitis including pannus formation, all of which precede the ultimate destruction of bone and cartilage. Furthermore, Zahiri, et al., indicate that the cartilage destruction in the joint is due to an invasive pannus which originates in the marginal synovium and extends across the articular surface to erode it. […] The most pointed reference showing the relationship between arthritis and joint deterioration is "An X-Ray Analysis of Adjuvant Arthritis in the Rat; the Effect of Prednisolone and Indomethacin", Blackham, et al., Agents and Action, 7 (No. 1), 145-151 (1977). In a similar manner, inhibition of the progress of arhtritis in paws of rats treated with the compounds of this invention also lessens associated joint deterioration.
Groups of three Royal Hart Wistar strain rats, weighing 200 + 10 g. each were injected intradermally in the right hind paw with Freund's adjuvant (dried human tubercle bacilli in a mineral oil vehicle) at a dose of 2 mg./kg. of body weight. Test compounds were administered orally in a 1.5% starch vehicle at 50 mg./kg. of body weight once daily on days 0 through 13 post-challenge. Control rats were treated in a similar manner, buty given only starch vehicle. On the l4th day post-challenge the diameter of the injected paw (primary lesion) was measured by micrometer caliper. From these measurements of inflamed paws a determination was made of the relative surface area (RSA). This is a ratio of the mean surface area of the paws of 3 treated rats/mean surface area of the paws of 60 control rats. If the RSA is equal to or less than 0.76, the compound is retested. After the second test, the mean RSA for the rat paws from both tests is calculated and if it is equal to or less than 0.736 the compound is tested a third time. If the mean RSA of all three tests is less than 0.753, the compound is considered active.

[2] = system: carrageenin inflamed feet; assay: Carrageenin Edema Assay; format: in vivo, Royal Hart, Wistar strain rats; design: key: Active: If the mean ratio of test 1 and 2 is equal to or greater than 1.43, the compound is considered active; conditions: rats, 250 mg./kg. by gavage; measured 5 hours after drug administration (4 hours after carrageenin challenge)
Method: Royal Hart, Wistar strain rats ranging in weight from 80 to 90 grams were used. The rats were fasted overnight prior to dosing but had free access to water. The test compounds were administered in aqueous suspension, by gavage, in a volume of 1.7 ml. per 50 grams of rat [corresponds to hydration volume used by Winter, et al., Proc. Soc. Exp. Biol. & Med., Ill, 544-547 (1962)]. The dose of all compounds was 250 mg./kq. The phlogistic agent used was carrageenin prepared as a sterile 1% suspension in 0.9% aqueous sodium chloride for routine testing. A volume of 0.05 ml. was injected into the plantar tissue of the right hind paw. Measurements were made 5 hours after drug administration (4 hours after carrageenin challenge). The paw of the unanesthetized rat was immersed in mercury exactly to an ink mark on the skin over the lateral malleolus. The mercury was contained in a glass cylinder 25 x 60 mm. The mercury column was connected with a Statham pressure transducer (model P23BB), range 0-5 cm. mercury. The output from the transducer was led through a model 260BLH signal conditioning unit and visualized by digital indicator. Volumes of both the normal and carrageenin inflamed feet were determined. The difference between the two measurements was considered to be the increased edema due to the carrageenin administration. Results were expressed as a control (C)/treated (T) efficacy ratio. (The ratio of mean edema volume of 8 control rats over the mean edema volume of 2 treated rats.) If the C/T ratio is equal to or greater than 1.41, the test is repeated. If the mean ratio of test 1 and 2 is equal to or greater than 1.43, the compound is considered active. The results of this test with typical compounds of this invention are recorded in Table

[3] = system: migration of macrophages; assay: Migratory Inhibition Test (capillary tube migration assay for MIF inhibitors); format: cell-based, Male Hartley guinea pigs; design: key: Active: Greater than 15% reversal of inhibition, c-b/a-b; conditions: Dose 10 mcg./ml.; guinea pig peritoneal cells, 37°C. for 24 hours
Text: Migratory Inhibition Test
Rheumatoid arthritis is a chronic inflammatory disease that is characterized by the migration of lymphocytes, macrophages and polymorphonuclear leukocytes to the sites of inflammation. The migration of lymphocytes and macrophages and their multiplication in situ is one reason for the very large increase in size of the normally thin synovial membrane which encloses the joint space. This transformed synovial membrane slowly grows over the articular surfaces and causes the destruction of the articular cartilage and other connective tissue structures of the joint. One of the mechanisms for the destruction of articular cartilage by the synovium is through the release of various hydrolytic enzymes by the resident macrophages which have been immobilized and activated by migration inhibitory factor (MIF). Macrophages stimulated by MIF are termed "activated macrophages" and undergo the following changes: (a) increased glucose oxidation, (b) increased ruffling of plasma membrane and increased spreading of cells, (c) synthesis and secretion of neutral proteases, (d) release of preformed lysosomal enzymes, (e) decreased migration from a capillary tube. […] The mechanism of cartilage destruction can be pictured as follows: [formula]
Drugs that can therefore block the release of MIF by lymphocytes or the activation of macrophages by MIF may be clinically effective in retarding the destructive joint damage which occurs in rheumatoid arthritis. Drugs can be tested as MIF inhibitors by using the capillary tube migration assay as follows: Male Hartley guinea pigs, weighing between 300 and 600 grams, were injected intraperitoneally with 25 ml. of Marcal 52 Oil@ (Humble Oil Co.). Three to four days later the guinea pigs were decapitated, the peritoneum opened and 50 ml. of cold Hank's solution added to the peritoneum. The Hank's solution containing the cell suspension was then aspirated into a separatory funnel. This procedure was repeated twice. […] Viability of the cells was then determined using trypan blue. […]

Row | SMILES | Result (relative surface area (RSA) of injected paw) [1] | Result (control (C)/treated (T) efficacy ratio of edema volume) [2] | Result (reversal of antigen inhibition of macrophage migration) [3]
1 | N#CCC(=O)Nc1ccc(-c2ncnn2-c2ccc(F)cc2)cc1 | Active | – | –
2 | c1ccc(-c2ncnn2-c2ccccc2)cc1 [1,5-Diphenyl-1H-1,2,4-triazole, 1,5-Diphenyl-lH-1,2,4-triazole] | – | Active | –
3 | Nc1ccc(-n2ncnc2-c2ccc(F)cc2)cc1 [1-(p-AminopUhenyl)-5-(p-fluorophenyl)-1H-1,2,4-triazole] | Active | – | –
4 | COc1cc(-c2nc(C)nn2-c2ccc(Br)cc2)cc(OC)c1OC [1-(p-Bromophenyl)-3-methyl-5-(3,4,5- -trimethoxyphenyl)-lH-1,2,4-triazole] | – | Active | –
5 | O=[N+]([O-])c1ccc(-c2ncnn2-c2ccc(Br)cc2)cc1 [1-(p-Bromophenyl)-5-(p-nitrophenyl)-1H-1,2,4-triazole] | Active | – | Active
6 | O=[N+]([O-])c1ccc(-c2ncnn2-c2ccc(F)cc2)cc1 [1-(p-Fluorophenyl)-5-(p-nitrophenyl)-1H-1,2,4-triazole] | Active | – | –
7 | CN(C)C=Nc1ccc(-c2ncnn2-c2ccc(F)cc2)cc1 [1-(p-Fluorophenyl)-5-[p-[(dimethylaminomethylene)-amino]phenyl]-1H-1,2,4-triazole] | Active | – | –
8 | Clc1ccc(-n2ncnc2-c2cnccn2)cc1 [2-fl-(p-Chlorophenyl)-lH-1,2,4-triazol-5-yllpyrazine] | – | Active | –
9 | c1cncc(-c2nnc[nH]2)c1 [3-(4H-1,2,4-Triazol-3-yl)-pyridine] | – | Active | –
10 | c1ccc(-n2ncnc2-c2ccncc2)cc1 [4-(1-Phenyl-1H-1,2,4-triazol-5-yl)pyridine] | – | Active | Active
11 | Fc1ccc(-n2ncnc2-c2ccncc2)cc1 [4-[1-(p-Fluorophenyl)-1H-1,2,4-triazol-5-yl]pyridine] | – | Active | –
12 | Nc1ccc(-c2ncnn2-c2ccc(Cl)cc2)cc1 [5-(p-Aminophenyl)-1-(p-chlorophenyl)-1H-1,2,4-triazole] | Active | – | –
13 | Nc1ccc(-c2ncnn2-c2ccc(F)cc2)cc1 [5-(p-Aminophenyl)-1-(p-fluorophenyl)-1H-1,2,4-triazole] | Active | – | –
14 | Nc1ccc(-c2ncnn2-c2ccccc2F)cc1 [5-(p-Aminophenyl)-l-(o-fluorophenyl)-lH-l,2,4-triazole] | Active | – | –
15 | Nc1ccc(-c2ncnn2-c2ccc(Br)cc2)cc1 [5-(p-Aminophenyl)-l-(p-bromophenyl)-lH-l,2,4-triazole] | Active | – | Active
16 | O=[N+]([O-])c1ccc(-n2ncnc2-c2ccc(F)cc2)cc1 [5-(p-Fluorophenyl)-1-(p-nitrophenyl)-1H-1,2,4-triazole] | Active | – | –
17 | O=[N+]([O-])c1ccc(-n2ncnc2-c2cnccn2)cc1 [(1-(p-Nitrophenyl)-1H-1,2,4-triazol-5-yl]pyrazine] | – | Active | –
18 | O=[N+]([O-])c1ccc(-c2ncnn2-c2ccccc2)cc1 [l-Phenyl-5-(p-nitrophenyl)-lH-l,2,4-triazole] | Active | – | –
19 | O=S(=O)(c1ccc(-n2ncnc2-c2cnccn2)cc1)C(F)F [{1-[p-(Difluoromethylsulfonyl)phenyl]-1H-1,2,4--triazol-5-yl}pyrazine] | – | Active | –
